Reference: PubChem BioAssay AID256 (DTP/NCI, 2004)
Several values for one entry are separate records, joined by “and”; a condition that tells them apart may be missing. Equal values may be shown once. Inconclusive results and toxic doses are left out. The calls were made as follows: active = survival T/C of 150% or more; inactive = T/C below 125% in these data.

Tested on: CD2F1 mice, L1210 leukemia ip, survival T/C
Test: NCI In Vivo Anticancer Drug Screen. Data for tumor model L1210 Leukemia (intraperitoneal) in CD2F1 (CDF1) mice
Details: higher = longer survival
Summary of the method: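 Transplantable tumor in mice; compound-treated vs vehicle-treated groups. Read-out = treated/control ratio of the measured endpoint.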

[1] = endpoint: mean survival time, dose: 100.0 mg/kg/injection, schedule: Q01DX001 (ip), vehicle: saline with Tween-80
[2] = endpoint: mean survival time, dose: 400.0 mg/kg/injection, schedule: Q01DX001 (ip), vehicle: saline with Tween-80
[3] = endpoint: mean survival time, dose: 50.0 mg/kg/injection, schedule: Q01DX009 (ip), vehicle: Klucel (hydroxypropylcellulose) (HPC)
[4] = endpoint: mean survival time, dose: 100.0 mg/kg/injection, schedule: Q01DX009 (ip), vehicle: Klucel (hydroxypropylcellulose) (HPC)
[5] = endpoint: mean survival time, dose: 200.0 mg/kg/injection, schedule: Q01DX009 (ip), vehicle: Klucel (hydroxypropylcellulose) (HPC)
[6] = endpoint: mean survival time, dose: 50.0 mg/kg/injection, schedule: Q01DX009 (ip), vehicle: saline sonified
[7] = endpoint: mean survival time, dose: 100.0 mg/kg/injection, schedule: Q04DX003 (ip), vehicle: saline with Tween-80
[8] = endpoint: mean survival time, dose: 200.0 mg/kg/injection, schedule: Q04DX003 (ip), vehicle: saline with Tween-80
[9] = endpoint: mean survival time, dose: 400.0 mg/kg/injection, schedule: Q04DX003 (ip), vehicle: saline with Tween-80
[10] = endpoint: mean survival time, dose: 12.5 mg/kg/injection, schedule: Q01DX009 (ip), vehicle: saline with Tween-80
[11] = endpoint: mean survival time, dose: 12.5 mg/kg/injection, schedule: Q04DX002 (ip), vehicle: saline with Tween-80
[12] = endpoint: mean survival time, dose: 25.0 mg/kg/injection, schedule: Q01DX009 (ip), vehicle: saline with Tween-80
[13] = endpoint: mean survival time, dose: 25.0 mg/kg/injection, schedule: Q04DX002 (ip), vehicle: saline with Tween-80
[14] = endpoint: mean survival time, dose: 50.0 mg/kg/injection, schedule: Q01DX009 (ip), vehicle: saline with Tween-80
[15] = endpoint: mean survival time, dose: 50.0 mg/kg/injection, schedule: Q04DX002 (ip), vehicle: saline with Tween-80
[16] = endpoint: mean survival time, dose: 100.0 mg/kg/injection, schedule: Q04DX002 (ip), vehicle: saline with Tween-80
[17] = endpoint: mean survival time, dose: 200.0 mg/kg/injection, schedule: Q04DX002 (ip), vehicle: saline with Tween-80
[18] = endpoint: mean survival time, dose: 400.0 mg/kg/injection, schedule: Q04DX002 (ip), vehicle: saline with Tween-80
[19] = endpoint: mean survival time, dose: 100.0 mg/kg/injection, schedule: Q01DX009 (ip), vehicle: saline with Tween-80
[20] = endpoint: mean survival time, dose: 200.0 mg/kg/injection, schedule: Q01DX009 (ip), vehicle: saline with Tween-80
[21] = endpoint: mean survival time, dose: 400.0 mg/kg/injection, schedule: Q01DX009 (ip), vehicle: saline with Tween-80

Measured: T/C

CC(=O)C(C(C)=O)C(=[C-]C(F)(F)F)C(F)(F)F.CC(=O)C(C(C)=O)C(=[C-]C(F)(F)F)C(F)(F)F.[Pd+2]
inactive: endpoint: mean survival time, dose: 3.13 mg/kg/injection, schedule: Q04DX003 (ip), vehicle: distilled water + Tween-80 102 % of control | endpoint: mean survival time, dose: 6.25 mg/kg/injection, schedule: Q04DX003 (ip), vehicle: distilled water + Tween-80 96 % of control | endpoint: mean survival time, dose: 12.5 mg/kg/injection, schedule: Q04DX003 (ip), vehicle: distilled water + Tween-80 102 % of control

Cc1ccc(C(=O)C(F)(F)F)cc1
inactive: [1] 104 % of control | endpoint: mean survival time, dose: 200.0 mg/kg/injection, schedule: Q01DX001 (ip), vehicle: saline with Tween-80 101 % of control | [2] 96 % of control

COc1cc2c(c(OC)c1OC)-c1ccc(SC)c(=O)cc1C(NC(=S)NC1OC(COC(C)=O)C(OC(C)=O)C(OC(C)=O)C1OC(C)=O)CC2 (centres undefined)
inactive: [3] 86 % of control | [4] 89 % of control | [5] 101 % of control

CN(Cc1cnc2nc(N)nc(N)c2n1)c1ccc(C(=O)NC(CCP(=O)(O)O)P(=O)(O)O)cc1 (centres undefined)
inactive: endpoint: median survival time, dose: 0.38 mg/kg/injection, schedule: Q01DX009 (ip), vehicle: saline 101 % of control | endpoint: median survival time, dose: 0.75 mg/kg/injection, schedule: Q01DX009 (ip), vehicle: saline 101 % of control | endpoint: median survival time, dose: 1.5 mg/kg/injection, schedule: Q01DX009 (ip), vehicle: saline 98 % of control | endpoint: median survival time, dose: 3.0 mg/kg/injection, schedule: Q01DX009 (ip), vehicle: saline 102 % of control | endpoint: median survival time, dose: 6.0 mg/kg/injection, schedule: Q01DX009 (ip), vehicle: saline 102 % of control | endpoint: median survival time, dose: 12.0 mg/kg/injection, schedule: Q01DX009 (ip), vehicle: saline 101 % of control

CC(=O)OCC1OC(OC(C)=O)C(NC(=O)C[NH-])C(OC(C)=O)C1OC(C)=O.CC(=O)OCC1OC(OC(C)=O)C(NC(=O)C[NH-])C(OC(C)=O)C1OC(C)=O.[Cl][Pt+2][Cl] (centres undefined)
inactive: endpoint: mean survival time, dose: 12.5 mg/kg/injection, schedule: Q04DX003 (ip), vehicle: saline 96 % of control | endpoint: mean survival time, dose: 25.0 mg/kg/injection, schedule: Q04DX003 (ip), vehicle: saline 98 % of control | endpoint: mean survival time, dose: 50.0 mg/kg/injection, schedule: Q04DX003 (ip), vehicle: saline 98 % of control | endpoint: mean survival time, dose: 100.0 mg/kg/injection, schedule: Q04DX003 (ip), vehicle: saline 106 % of control | endpoint: mean survival time, dose: 200.0 mg/kg/injection, schedule: Q04DX003 (ip), vehicle: saline 98 % of control

CC(=O)c1ccc[n+](CCc2c[nH]c3ccccc23)c1
inactive: endpoint: mean survival time, dose: 12.5 mg/kg/injection, schedule: Q01DX009 (ip), vehicle: saline sonified 103 % of control | endpoint: mean survival time, dose: 12.5 mg/kg/injection, schedule: Q04DX003 (ip), vehicle: saline with Tween-80 98 % of control | endpoint: mean survival time, dose: 25.0 mg/kg/injection, schedule: Q01DX009 (ip), vehicle: saline sonified 100 % of control | endpoint: mean survival time, dose: 25.0 mg/kg/injection, schedule: Q04DX003 (ip), vehicle: saline with Tween-80 104 % of control | [6] 103 % of control | endpoint: mean survival time, dose: 50.0 mg/kg/injection, schedule: Q04DX003 (ip), vehicle: saline with Tween-80 103 % of control

CN1CCN(CCSSCCN2CCN(C)CC2)CC1
inactive: [6] 97 % of control | endpoint: mean survival time, dose: 100.0 mg/kg/injection, schedule: Q01DX009 (ip), vehicle: saline sonified 97 % of control | [7] 105 % of control | endpoint: mean survival time, dose: 200.0 mg/kg/injection, schedule: Q01DX009 (ip), vehicle: saline sonified 98 % of control | [8] 100 % of control

O=[N+]([O-])/C=C\c1ccccc1
inactive: [7] 96 % of control | [8] 90 % of control | [9] 86 % of control

O=C(c1ccccc1)C1CC2(c3ccccc3)C(=O)C1(c1ccccc1)c1c2c2ccccc2c2ccccc12 (centres undefined)
inactive: endpoint: mean survival time, dose: 50.0 mg/kg/injection, schedule: Q01DX001 (ip), vehicle: saline with Tween-80 90 % of control | [1] 86 % of control and 94 % of control | [2] 89 % of control

O=C(O)c1ccccc1C(=O)Nc1cccc(Cl)c1
inactive: endpoint: mean survival time, dose: 100.0 mg/kg/injection, schedule: Q04DX003 (ip), vehicle: Klucel (hydroxypropylcellulose) (HPC) 110 % of control | endpoint: mean survival time, dose: 200.0 mg/kg/injection, schedule: Q04DX003 (ip), vehicle: Klucel (hydroxypropylcellulose) (HPC) 93 % of control | endpoint: mean survival time, dose: 400.0 mg/kg/injection, schedule: Q04DX003 (ip), vehicle: Klucel (hydroxypropylcellulose) (HPC) 98 % of control

Cc1ccc([N+](=O)[O-])cc1NC(=O)N1CCC(C)CC1
inactive: [3] 98 % of control | [4] 96 % of control | [5] 101 % of control

COCNC(=S)N/N=C/c1ccccn1
inactive: endpoint: mean survival time, dose: 6.25 mg/kg/injection, schedule: Q01DX009 (ip), vehicle: saline with Tween-80 97 % of control | [10] 100 % of control | [11] 94 % of control | [12] 97 % of control | [13] 97 % of control | [14] 122 % of control | [15] 97 % of control

CCCN(CCC)C(=O)c1cccnc1
inactive: endpoint: mean survival time, dose: 100.0 mg/kg/injection, schedule: Q01DX009 (ip), vehicle: saline 92 % of control | endpoint: mean survival time, dose: 200.0 mg/kg/injection, schedule: Q01DX009 (ip), vehicle: saline 92 % of control | endpoint: mean survival time, dose: 400.0 mg/kg/injection, schedule: Q01DX009 (ip), vehicle: saline 97 % of control

N#CC(=N)C(C#N)C#N
inactive: [11] 93 % of control | [13] 93 % of control | [15] 108 % of control

CCCCCCCCC1SC1CCCCCCCC(=O)OCCN(C)C(=O)CCCCCCCC1SC1CCCCCCCC (centres undefined)
inactive: endpoint: mean survival time, dose: 100.0 mg/kg/injection, schedule: Q04DX003 (ip), vehicle: other 100 % of control | endpoint: mean survival time, dose: 200.0 mg/kg/injection, schedule: Q04DX003 (ip), vehicle: other 92 % of control | endpoint: mean survival time, dose: 400.0 mg/kg/injection, schedule: Q04DX003 (ip), vehicle: other 90 % of control

Oc1ccc(/C=N/NC(=S)Nc2ccccc2)nc1
inactive: [16] 106 % of control | [17] 106 % of control | [18] 95 % of control

CC(C)(CCCO)c1cccc(Cl)c1
inactive: [14] 104 % of control | [19] 101 % of control | [20] 104 % of control

BrC1CC(Br)c2c1c1c(c3c2C(Br)CC3Br)C(Br)CC1Br (centres undefined)
inactive: [10] 100 % of control and 105 % of control | [12] 102 % of control and 104 % of control | [14] 104 % of control and 105 % of control | [19] 97 % of control and 108 % of control | [20] 114 % of control and 105 % of control | [21] 104 % of control and 105 % of control

NC(=O)C1(C(N)=O)CCCCC1
inactive: [15] 100 % of control | [16] 112 % of control | [17] 100 % of control

NCc1cn(C2OC(CO)C(O)C2O)c2ncnc(N)c12 (centres undefined)
inactive: endpoint: mean survival time, dose: 3.13 mg/kg/injection, schedule: Q01DX005 (ip), vehicle: water 118 % of control | endpoint: mean survival time, dose: 6.25 mg/kg/injection, schedule: Q01DX005 (ip), vehicle: water 95 % of control

CC1C2CCC(C2)C1OC(=O)c1ccccc1C(=O)O (centres undefined) (tested in a mixture with another compound)
inactive: [14] 107 % of control | [19] 102 % of control and 93 % of control | [7] 95 % of control | [20] 95 % of control | [8] 95 % of control | [21] 94 % of control

O=C(O)Cc1c[nH]c2ccc(O)cc12
inactive: [19] 98 % of control | [7] 105 % of control | [20] 96 % of control | [8] 100 % of control | [21] 95 % of control | [9] 100 % of control

N#C/C(=C\c1c(Cl)cccc1Cl)c1ccc([N+](=O)[O-])cc1
inactive: [19] 97 % of control | [20] 88 % of control | [21] 91 % of control

COc1ccc(NC(=O)Nc2ccc(OC)cc2Cl)cc1
inactive: [16] 90 % of control | [17] 86 % of control | [18] 90 % of control
